Results as given in patent publication US20220241168A1, “COMPOSITION FOR STIMULATING BETA-ENDORPHIN PRODUCTION COMPRISING SANSHOOL” (AMOREPACIFIC CORPORATION, priority 2021, published 2022).

Experiments:
CB2 receptor = conditions: intraperitoneal administration; cited from earlier work
[1] = test system: human-derived keratinocyte, HaCaT; assay: IL-1b release from HaCaT under poly (I:C)-induced allergic contact dermatitis conditions (ELISA); format: cell-based; conditions: 10 μM, poly (I:C) 15 ng/ml, 24 hours
Protocol: First, a human-derived keratinocyte, HaCaT, was dispensed in a 24-well plate together with a Dulbecco's modified eagle's medium (DMEM) containing 10% fetal bovine serum (FBS), and cultured at 37° C. under 5% CO2 culture conditions for 24 hours. Afterwards, while inducing allergic contact dermatitis conditions to the HaCat with 15 ng/ml of poly (I:C), each of Example 1 (hydroxy-α-sanshool) and Example 2 (hydroxy-γ-sanshool), which were each dissolved in dimethyl sulfoxide (DMSO), were treated at 10 μM and dissolved in the medium. After 24 hours, each medium was collected, and IL-1b ELISA kit (R&D systems) was used to measure an amount of cytokine IL-1b according to a manufacturer's method.

[2] = test system: normal human epidermal cells, keratinocyte; assay: β-endorphin secretion from normal human epidermal keratinocytes (β-endorphin EIA kit); format: cell-based; conditions: for amount of β-endorphin secreted from keratinocyte: 10 μM, six hours, compared to control group (FIG. 1, FIG. 2); for β-endorphin production effect: six hours (FIG. 3)
Protocol: First, normal human epidermal cells, keratinocyte (Gibco), were cultured from a 6-well plate to a confluence point at 37° C. under 5% CO2 culture conditions. In an embodiment of the present disclosure, a keratinocyte-SFM (Gibco) medium was treated with 10 μM of each of hydroxy-α-sanshool (CHEMFACES®; Example 1), hydroxy-γ-sanshool (Chengdu Biopurify Phytochemicals Ltd.; Example 2), hydroxy-β-sanshool (Chengdu Biopurify Phytochemicals Ltd.; Example 3), hydroxy-ε-sanshool (Chengdu Biopurify Phytochemicals Ltd.; Example 4), cannabidiol (CBD) (Sigma-Aldrich®; Comparative Example 1), honokiol (Sigma-Aldrich®; Comparative Example 2), magnolol (Sigma-Aldrich®; Comparative Example 3), and palmitoylethanolamide (PEA) (Sigma-Aldrich®; Comparative Example 4), which are known as CB2 agonists as Comparative Examples, and cultured at 37° C. for six hours under 5% CO2 culture conditions. Afterwards, each medium was collected, and a β-endorphin EIA kit (EK-022-14, Phoenix pharmaceuticals, Belmont, Calif.) was used to quantify an amount of β-endorphin secreted from keratinocyte in each medium. Student t-test was used for statistical significance between specimens, and when a value of p-value is less than or equal to 0.05, it was analyzed as statistically significant. (*p<0.05, **p<0.01, ***p<0.001)
First, normal human epidermal cells, keratinocyte (Gibco), were cultured from a 6-well plate to a confluence point at 37° C. under 5% CO2 culture conditions. […] Afterwards, each medium was collected, and a β-endorphin EIA kit (EK-022-14, Phoenix pharmaceuticals, Belmont, Calif.) was used to quantify an amount of β-endorphin secreted from keratinocyte in each medium. Student t-test was used for statistical significance between specimens, and when a value of p-value is less than or equal to 0.05, it was analyzed as statistically significant. (*p<0.05, **p<0.01, ***p<0.001)

[3] = sanshool-containing drug ingested; cited from earlier work

CN1CCCCC1Cn1cc(C(=O)c2cc([N+](=O)[O-])ccc2I)c2ccccc21 (centres unmarked) [AM1241]
endorphin secretion (CB2 receptor): had an effect on inducing endorphin secretion

C/C=C/C=C/C=C\CC/C=C/C(=O)NCC(C)(C)O [Example 1, hydroxy-α-sanshool]
IL-1b [1]: 11.29 pg/mL

C/C=C/C=C/C=C\CC/C=C/C=C/C(=O)NCC(C)(C)O [Example 2, hydroxy-γ-sanshool]
IL-1b [1]: 11.2 pg/mL

C=CCc1ccc(O)c(-c2ccc(O)c(CC=C)c2)c1 [honokiol, reference compound]
amount of β-endorphin secreted from keratinocyte [2]: further decrease in an amount of β-endorphin secretion compared to a control group

C=CCc1ccc(O)c(-c2cc(CC=C)ccc2O)c1 [magnolol, reference compound]
amount of β-endorphin secreted from keratinocyte [2]: further decrease in an amount of β-endorphin secretion compared to a control group

sanshool
β-endorphin production effect ([2]; 0.00006 wt %): β-endorphin production effect was not shown | β-endorphin production effect ([2]; 0.006 wt % as printed): production of β-endorphin was induced | presence in plasma [3]: remained in plasma
